Key:
CHO K1 cells [1] = details: for DNA uptake, fluorescence of imported Alexa Fluor-488-DNA: 5 μg/mL cationic lipid (black bars, FIG. 8), 1 μg/mL DNA, 4 h at 37° C.; for DNA uptake compared with the lipofectamine control: 0.5, 2.5, 5 μg/mL; for increase in DNA uptake/delivery over diamine 22: FIG. 8, 5 μg/mL dose
Experimental: CHO K1 cells were grown to confluence in 24-well plates, rinsed with medium and incubated for 4 h at 37° C. with 1 μg/mL Alexa Fluor-488-DNA complexed with 0.5 μg/mL (white bars), 2.5 μg/mL (gray bars), or 5 μg/mL (black bars) of the respective cationic lipid, as indicated above each entry; cells were then extensively washed with PBS, treated with trypsin, and cell pellets were again extensively washed with PBS 1% BSA to completely remove non-specific fluorescence from the cell exterior; finally, cells were analyzed for Alexa Fluor-488-DNA uptake by flow cytometry on a FACSCalibur (BD Biosciences) operated by Cell-Quest software.
CHO K1 cells were grown to confluence in 24-well plates, rinsed with medium and incubated for 4 h at 37° C. with 1 μg/mL Alexa Fluor-488-DNA complexed with 0.5 μg/mL (white bars), 2.5 μg/mL (grey bars), or 5 μg/mL (black bars) of the respective cationic lipid, as indicated above each entry. Cells were then extensively washed with PBS, treated with trypsin, and cell pellets were again extensively washed with PBS 1% BSA to completely remove non-specific fluorescence from the cell exterior. Finally, cells were analyzed for Alexa Fluor-488-DNA uptake by flow cytometry on a FACSCalibur (BD Biosciences) operated by Cell-Quest software.
A gate was set just above the threshold signal for control cells (DNA only with no lipid conjugate). […] Data are presented as the mean±SD.
AlexaFluor-488 labeled DNA with or without cationic lipid was mixed in serum-free F12K and added to extensively rinsed cells grown in 24-well plates. Cells were then incubated for 4 h at 37° C. After removal of the incubation medium and rinsing with PBS, cells were detached with trypsin followed by extensive washing with ice-cold PBS, 1% (w/v) bovine serum albumin (BSA) to remove non-specific fluorescence. Finally, cells were suspended in PBS, 1% BSA and analyzed for DNA uptake by flow cytometry on a FACSCalibur (BD Biosciences) operated by Cell-Quest software.

CHO K1 cells [2] = experiment: eGFP DNA plasmid transfection, GFP expression by FACS (FIG. 10, FIG. 11); assay type: cell-based, Chinese hamster; details: for % GFP positive cells (transfection efficiency): 5 μg/mL dose
Experimental: Medium was then changed, and cells were incubated for another 24 h to allow for GFP plasmid expression; cells were detached by trypsin treatment and analyzed for GFP expression by FACS; Lipofectamine is denoted as LFA; the value obtained with DNA plasmid only was subtracted from each entry above (almost negligible);
In order for the ‘therapy’ to be effective, the DNA must escape from the endosome and enter the cell's nucleus, be transcribed to a regulatory, non coding RNA (RNAi) or to mRNA that is translated into its coded protein. Therefore, we investigated the conjugate-assisted expression of an eGFP DNA plasmid encoding for the green fluorescent protein (GFP). CHO cells, which were successfully transfected, were easily identified by their green fluorescence. Control experiments conducted with only the eGFP DNA plasmid (and no lipid carrier) gave virtually no fluorescence. A gate or instrumental threshold was set based upon this low background fluorescence. Fluorescence detected above this background was considered a positive response.
Medium was then changed, and cells were incubated for another 24 h to allow for GFP plasmid expression. Cells were detached by trypsin treatment and analyzed for GFP expression by FACS. Lipofectamine is denoted as LFA. The value obtained with DNA plasmid only was subtracted from each entry above (almost negligible).
A gate was set just above the threshold measured with no DNA plasmid and no conjugate added (almost negligible). […] Data are presented as the mean±SD.
(§1) GFP transfection experiments—eGFP encoding DNA plasmid with or without cationic lipid was mixed in F12K and incubated with pre-rinsed, sub-confluent cells in 24-well plates for 4 h, followed by another incubation period of 24 h in growth medium. Cells were then washed with PBS, detached by trypsin treatment, dissolved in PBS, 1% BSA, and analyzed by FACS for GFP expression.

[3] = tested on: Ramos human leukemia cells; experiment: Sensitization to OKT10 immunotoxin intoxication, Ramos; assay type: cell-based
Experimental: (§2) We have also documented lipopolyamine-induced toxin sensitization with two other saporin-based toxins: (i) FGF-saporin, a chemical conjugate between fibroblast growth factor and saporin; and (ii) the OKT10 immunotoxin which consists of a chemical conjugate between saporin and an antibody that recognizes the CD38 cancer antigen. DU145 human prostate cancer cells exposed to lipopolyamine 26 and FGF-saporin were 85-fold more sensitive to intoxication than cells incubated with FGF-saporin alone. […] We have also shown that Ramos human leukemia cells exposed to lipopolyamine 26 and OKT10 are 100-fold more sensitive to intoxication than cells incubated with OKT10 alone.

HeLa cells [4] = experiment: Sensitization to FGF-saporin intoxication in non-target HeLa cells; assay type: cell-based; details: which do not express the FGF receptor
[5] = tested on: DU145 human prostate cancer cells; experiment: Lipopolyamine-induced sensitization to FGF-saporin intoxication, DU145; assay type: cell-based
Experimental: as §2

[6] = tested on: polyamine transporter, PAT; experiment: [14C]Spermine uptake inhibition (competition assay) in CHO-K1 cells (FIG. 12); assay type: cell-based, Chinese hamster
From the text: We theorized that 26 may be using the polyamine transporter, PAT, for cellular entry. […] This observation implied that 26 was able to compete for the polyamine recognition sites on the cell surface (e.g., PAT). Therefore, it is possible that certain lipophilic polyamines, which present the correct polyamine ‘message’, may be able to recognize and target cells expressing high levels of polyamine transporters on their cell surface (e.g., cancer cells, rapidly dividing tumors, etc.). However, as shown in this report, delivery into the cell is just one step in successful gene transfection. Nevertheless, the findings disclosed herein are an important first step in developing ‘smart’ transfection agents.

CHO K1 cells [7] = assay type: cell-based; details: Chinese hamster, 24 h, 0.5 μM
Experimental: Taking these factors into account, cytotoxicity screens were performed to investigate the relative toxicity of each system. Most materials were relatively non-toxic with IC50 values ≧20 μM. Armed with this insight, cells were treated with ≦6.4 μM of the polyamine conjugate so as to avoid significant toxic effects from the delivery agent itself. Indeed, at this dose ≧90% of cells survived transfection for all compounds except 28. Indeed, compound 28 was very toxic (after 24 h incubation) and even at the lowest dose used for transfection (0.5 μg/mL; 0.5 μM 28) killed 95% of the cells. As such, 28 was too toxic for efficient transfection at the doses surveyed and its data is strongly biased by the few remaining cells, which survived.
as §1

HeLa cells [8] = details: cited from earlier work

CCCCCCCCC=CCCCCCCCCOc1ccc(CNCCCCN)cc1OCCCCCCCCC=CCCCCCCCC.Cl.Cl [Compound 22, N^1-(3,4-Bis-octadec-9-enyloxy-benzyl)-butane-1,4-diamine, dihydrochloride salt]
DNA uptake, fluorescence of imported Alexa Fluor-488-DNA (CHO K1 cells [1]): 94 a.u. | % GFP positive cells (transfection efficiency) (CHO K1 cells [2]; FIG. 11): 38%

CCCCCCCCC=CCCCCCCCCOc1ccc(CNCCCCCCCCN)cc1OCCCCCCCCC=CCCCCCCCC.Cl.Cl [Compound 23, N^1-(3,4-Bis-octadec-9-enyloxy-benzyl)-octane-1,8-diamine, dihydrochloride salt]
positive cells of the total cell population after DNA uptake experiment (CHO K1 cells [1]; 5 μg/mL, black bars in FIG. 9, gated): 84% | % GFP positive cells (transfection efficiency) (CHO K1 cells [2]; FIG. 11): 23% | GFP expression/cell (CHO K1 cells [2]; 5 μg/mL, FIG. 10): 5 a.u.

CCCCCCCCC=CCCCCCCCCOc1ccc(CNCCOCCOCCN)cc1OCCCCCCCCC=CCCCCCCCC.Cl.Cl [Compound 24, 2-{2-[2-(3,4-Bis-octadec-9-enyloxy-benzylamino)-ethoxy]-ethoxy}-ethylamine, dihydrochloride salt]
DNA uptake compared with the lipofectamine control (CHO K1 cells [1]; FIG. 8): as good | DNA delivery (DNA probe fluorescence) of polyether eight-atom spacer versus octanediamine analogue (CHO K1 cells [1]; FIG. 8): nearly doubled | % GFP positive cells (transfection efficiency) (CHO K1 cells [2]; FIG. 11): 25% | GFP expression/cell (CHO K1 cells [2]; 5 μg/mL, FIG. 10): 7 a.u.

CCCCCCCCC=CCCCCCCCCOc1ccc(CNCCCCNCCCCN)cc1OCCCCCCCCC=CCCCCCCCC.Cl.Cl.Cl [Compound 25, N-(4-Amino-butyl)-N′-(3,4-bis-octadec-9-enyloxy-benzyl)-butane-1,4-diamine, tri hydrochloride salt]
DNA uptake, fluorescence of imported Alexa Fluor-488-DNA (CHO K1 cells [1]): 281 a.u. | DNA uptake compared with the lipofectamine control (CHO K1 cells [1]; FIG. 8): as good | DNA delivery compared with 22 (CHO K1 cells [1]; FIG. 8): three-fold increase | increase in DNA uptake/delivery over diamine 22 (CHO K1 cells [1]): 3 fold | % GFP positive cells (transfection efficiency) (CHO K1 cells [2]; FIG. 11): 49% | transfection efficiency compared with 22 (CHO K1 cells [2]; FIG. 11): only slightly higher transfection efficiency than 22

CCCCCCCCC=CCCCCCCCCOc1ccc(CNCCCCNCCCCNCCCCN)cc1OCCCCCCCCC=CCCCCCCCC.Cl.Cl.Cl.Cl [Compound 26, N-[4-(4-Amino-butylamino)-butyl]-N′-(3,4-bis-octadec-9-enyloxy-benzyl)-butane-1,4-diamine, tetrahydrochloride salt]
sensitivity to OKT10 intoxication versus OKT10 alone [3]: 100 fold | sensitization of non-target cells to FGF-saporin (HeLa cells [4]): no more sensitive to intoxication | DNA uptake, fluorescence of imported Alexa Fluor-488-DNA (CHO K1 cells [1]): 504 a.u. | DNA uptake compared with the lipofectamine control (CHO K1 cells [1]; FIG. 8): better | increase in DNA uptake/delivery over diamine 22 (CHO K1 cells [1]): > 5 fold | DNA delivered to the cell relative to control LFA (CHO K1 cells [1]; black bars in FIG. 8, 5 μg/mL): 3 fold | % GFP positive cells (transfection efficiency) (CHO K1 cells [2]; FIG. 11): 67% | GFP expression/cell (CHO K1 cells [2]; 5 μg/mL, FIG. 10): 25 a.u. | higher transfection efficiency than the LFA control (CHO K1 cells [2]; 5 μg/mL, FIG. 11): over 50% | relative GFP expression/cell versus LFA (CHO K1 cells [2]; FIG. 10): two fold higher | % of GFP positive cells relative to LFA (CHO K1 cells [2]; FIG. 11): 1.5 fold | sensitivity to FGF-saporin intoxication versus FGF-saporin alone [5]: 85 fold | IC50 ([6]; 1 μM [14C]spermine, 20 min, serum free medium, CHO-K1): ~10 µM | polyamine uptake inhibition ([6]; FIG. 12 legend): efficient inhibitor of polyamine uptake

CCCCCCCCC=CCCCCCCCCOc1ccc(C(=O)NCCCCNCCCCN)cc1OCCCCCCCCC=CCCCCCCCC.Cl.Cl [Compound 27, N-[4-(4-Amino-butylamino)-butyl]-3,4-bis-octadec-9-enyloxy-benzamide, dihydrochloride salt]
DNA uptake compared with the lipofectamine control (CHO K1 cells [1]; FIG. 8): better | DNA delivery compared with 22 (CHO K1 cells [1]; FIG. 8): more efficient DNA delivery agent than 22 | increase in DNA uptake/delivery over diamine 22 (CHO K1 cells [1]): greater than 4 fold | % GFP positive cells (transfection efficiency) (CHO K1 cells [2]; FIG. 11): 40% | transfection efficiency compared with 22 (CHO K1 cells [2]; FIG. 11): nearly identical transfection efficiency

CCCCCCCCC=CCCCCCCCCOc1ccc(C(=O)NCCCCNCCCCNCCCCN)cc1OCCCCCCCCC=CCCCCCCCC.Cl.Cl.Cl [Compound 28, N-{4-[4-(4-Amino-butylamino)-butylamino]-butyl}-3,4-bis-octadec-9-enyloxy-benzamide, trihydrochloride salt]
cells killed (CHO K1 cells [7]): 95%

CCCCCCCCCCCCCCCCCCN(CCCCCCCCCCCCCCCCCC)C(=O)CNC(=O)CNCCCNCCCCNCCCN [RPR 120535]
more effective at transfection than branched-, globular- or T-shaped polar domains (HeLa cells [8]): 5-10 times

Source: patent US7910363B1, “Lipophilic polyamines providing enhanced intracellular delivery of agents by a polyamine transport system” (University of Central Florida Research Foundation, Inc., priority 2007, dated 2011)
